SMILES strings stand for the structures.

A word on the IC50: it is the midpoint of a concentration-inhibition curve.

The target in the assay is T1, human acetyl-CoA carboxylase 2 (ACC2) (Homo sapiens, UniProt O00763).
T1 construct: The cDNA encoding amino acids 144 to 2458 of human acetyl-CoA carboxylase 2; made in house; host or cells: Sf9 insect cells (baculovirus, pFastBac1)
T1 sequence (O00763 144-2458): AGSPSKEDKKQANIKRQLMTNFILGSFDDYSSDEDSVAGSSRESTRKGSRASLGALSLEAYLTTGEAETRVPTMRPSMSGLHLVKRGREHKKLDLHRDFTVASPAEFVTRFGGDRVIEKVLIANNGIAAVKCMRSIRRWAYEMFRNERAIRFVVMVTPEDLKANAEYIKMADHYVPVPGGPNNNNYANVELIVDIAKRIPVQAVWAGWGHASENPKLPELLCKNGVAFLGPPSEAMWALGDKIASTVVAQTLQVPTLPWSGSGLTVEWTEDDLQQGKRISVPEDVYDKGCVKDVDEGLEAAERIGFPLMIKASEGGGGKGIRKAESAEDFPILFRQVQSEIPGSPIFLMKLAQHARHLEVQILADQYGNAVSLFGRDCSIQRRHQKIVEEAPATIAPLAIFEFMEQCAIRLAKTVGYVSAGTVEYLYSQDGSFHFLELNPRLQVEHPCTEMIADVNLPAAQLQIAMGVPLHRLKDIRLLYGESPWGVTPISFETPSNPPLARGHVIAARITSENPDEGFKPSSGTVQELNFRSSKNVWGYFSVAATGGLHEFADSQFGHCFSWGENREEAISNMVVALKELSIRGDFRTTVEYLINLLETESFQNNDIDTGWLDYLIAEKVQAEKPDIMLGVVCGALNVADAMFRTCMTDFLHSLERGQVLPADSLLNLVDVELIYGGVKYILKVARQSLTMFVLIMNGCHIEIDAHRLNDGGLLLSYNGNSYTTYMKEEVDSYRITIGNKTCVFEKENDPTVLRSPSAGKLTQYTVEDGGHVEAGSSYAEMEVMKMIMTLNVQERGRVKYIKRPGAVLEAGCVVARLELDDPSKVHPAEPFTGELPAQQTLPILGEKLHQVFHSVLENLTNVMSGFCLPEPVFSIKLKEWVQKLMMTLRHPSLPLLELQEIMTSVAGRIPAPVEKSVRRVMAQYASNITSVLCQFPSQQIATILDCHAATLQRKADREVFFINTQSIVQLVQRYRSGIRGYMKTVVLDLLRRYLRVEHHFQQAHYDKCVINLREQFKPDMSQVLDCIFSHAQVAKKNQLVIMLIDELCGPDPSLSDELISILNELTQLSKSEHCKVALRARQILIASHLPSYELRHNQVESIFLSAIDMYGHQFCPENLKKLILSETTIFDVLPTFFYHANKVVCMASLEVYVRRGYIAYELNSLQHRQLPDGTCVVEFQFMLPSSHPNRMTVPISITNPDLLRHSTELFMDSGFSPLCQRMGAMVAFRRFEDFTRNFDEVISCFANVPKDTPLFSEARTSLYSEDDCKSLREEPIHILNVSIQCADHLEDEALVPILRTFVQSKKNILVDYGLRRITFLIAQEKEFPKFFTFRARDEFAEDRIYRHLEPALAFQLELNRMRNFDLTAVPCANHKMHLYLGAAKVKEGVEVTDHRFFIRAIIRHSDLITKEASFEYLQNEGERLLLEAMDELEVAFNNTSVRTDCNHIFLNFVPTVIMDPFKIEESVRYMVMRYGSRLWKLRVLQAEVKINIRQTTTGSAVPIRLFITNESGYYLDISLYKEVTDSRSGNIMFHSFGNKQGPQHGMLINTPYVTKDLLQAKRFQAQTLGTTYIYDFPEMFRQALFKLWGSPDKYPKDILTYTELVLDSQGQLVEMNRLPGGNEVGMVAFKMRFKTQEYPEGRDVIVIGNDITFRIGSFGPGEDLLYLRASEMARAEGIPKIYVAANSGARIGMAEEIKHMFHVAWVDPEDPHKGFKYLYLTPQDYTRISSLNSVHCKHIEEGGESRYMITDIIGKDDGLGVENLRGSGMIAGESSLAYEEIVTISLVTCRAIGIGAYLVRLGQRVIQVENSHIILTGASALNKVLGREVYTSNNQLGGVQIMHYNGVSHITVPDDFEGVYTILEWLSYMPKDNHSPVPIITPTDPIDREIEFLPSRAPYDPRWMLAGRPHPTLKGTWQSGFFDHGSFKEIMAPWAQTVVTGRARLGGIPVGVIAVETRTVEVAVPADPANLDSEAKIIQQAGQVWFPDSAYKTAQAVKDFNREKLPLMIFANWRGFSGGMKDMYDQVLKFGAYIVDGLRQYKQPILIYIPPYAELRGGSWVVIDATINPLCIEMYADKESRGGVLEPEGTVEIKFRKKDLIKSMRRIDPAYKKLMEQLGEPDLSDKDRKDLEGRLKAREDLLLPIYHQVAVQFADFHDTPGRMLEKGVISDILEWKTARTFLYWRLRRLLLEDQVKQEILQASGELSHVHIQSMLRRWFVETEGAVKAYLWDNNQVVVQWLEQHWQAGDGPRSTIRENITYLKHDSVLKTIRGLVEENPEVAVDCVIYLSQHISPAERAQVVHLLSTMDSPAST
The assay can be described thus: Acetyl-CoA carboxylase enzyme assay (malonyl-CoA formation by LC/MS/MS). As to conditions: recombinant human ACC2 (aa 144-2458); read-out: IC50 ACC2. The class given is biochemical. The method in brief:
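Malonyl-CoA formation was read by LC/MS/MS MRM against a [13C3]-malonyl-CoA internal standard, after acetic acid quench. The enzyme was baculovirus/Sf9-expressed human ACC2 residues 144–2458, given 15 minutes room-temperature compound preincubation in HEPES pH 7.5 buffer with MgCl2, citrate and DTT. Substrate solution held 50 μM acetyl-CoA, 120 μM ATP and 2 mM KHCO3.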
Consider `C[C@@H](NC(=O)[C@H]1CC[C@H](NC(=O)c2ccc3[nH]c(-c4ccccc4)nc3c2)CC1)c1ccc(F)cc1` [Example 662, N-((1R,4r)-4-((R)-1-(4-fluorophenyl)ethylcarbamoyl)cyclohexyl)-2-phenyl-1H-benzo[d]imidazole-5-carboxamide], for which the IC50 amounted to 32500 nM.

With `Cn1c(-c2ccccc2)cc2ccc(S(=O)(=O)N[C@H]3CC[C@H](C(=O)N4CC(=O)NC[C@@H]4c4ccccc4)CC3)cc21` [Example 354, 1-methyl-N-((1S,4r)-4-((S)-5-oxo-2-phenylpiperazine-1-carbonyl)cyclohexyl)-2-phenyl-1H-indole-6-sulfonamide], the IC50 is less than 10 nM. Regarding `C[C@@H](NC(=O)[C@H]1CC[C@H](NS(=O)(=O)c2ccc3[nH]c(=O)oc3c2)CC1)c1ccc(F)cc1` [Example 659, (1r,4R)-N-((R)-1-(4-fluorophenyl)ethyl)-4-(2-oxo-2,3-dihydrobenzo[d]oxazole-6-sulfonamido)cyclohexanecarboxamide], the IC50 worked out at 378 nM. Regarding `CC(C)(C)OC(=O)N1CCN(C(=O)[C@H]2CC[C@H](NS(=O)(=O)c3ccc4c(c3)NCCC4)CC2)C(c2ccccc2)C1` (stereo partly shown) [Example 174, tert-butyl 3-phenyl-4-((1r,4r)-4-(1,2,3,4-tetrahydroquinoline-7-sulfonamido)cyclohexanecarbonyl)piperazine-1-carboxylate], the IC50 stood at 45 nM. In the case of `O=C(Nc1cccnc1)[C@H]1CC[C@H](NS(=O)(=O)c2ccc3[nH]c(-c4ccccc4)nc3c2)CC1` [Example 649, (1r,4r)-4-(2-phenyl-1H-benzo[d]imidazole-5-sulfonamido)-N-(pyridin-3-yl)cyclohexanecarboxamide] it was 387 nM; in that of `C[C@@H](NC(=O)[C@H]1CC[C@H](NS(=O)(=O)c2ccc3nc(O)ccc3c2)CC1)c1ccc(F)cc1` [Example 54, (1r,4R)-N-((R)-1-(4-fluorophenyl)ethyl)-4-(2-hydroxyquinoline-6-sulfonamido)cyclohexanecarboxamide], 193 nM. Turning to `C[C@@H](NC(=O)[C@H]1CC[C@H](NS(=O)(=O)c2ccc3nc(C#CCN4CCNCC4)ccc3c2)CC1)c1ccc(F)cc1` [Example 247, (1r,4R)-N-((R)-1-(4-fluorophenyl)ethyl)-4-(2-(3-(piperazin-1-yl)prop-1-ynyl)quinoline-6-sulfonamido)cyclohexanecarboxamide], the half-inhibitory concentration (IC50) turned out to be 30 nM. In the case of `CC(C)COC(=O)N1CCNc2ncc(S(=O)(=O)N[C@H]3CC[C@H](C(=O)N[C@H](C)c4ccc(F)cc4)CC3)cc21` [Example 200, isobutyl 7-(N-((1R,4r)-4-((R)-1-(4-fluorophenyl)ethylcarbamoyl)cyclohexyl)sulfamoyl)-3,4-dihydropyrido[3,2-b]pyrazine-1(2H)-carboxylate] it was 60 nM. Turning to `C[C@@H](NC(=O)[C@H]1CC[C@H](NS(=O)(=O)c2ccc3ncsc3c2)CC1)c1ccc(F)cc1` [Example 113, (1r,4R)-4-(benzo[d]thiazole-6-surfonamido)-N-((R)-1-(4-fluorophenyl)ethyl)cyclohexanecarboxamide], the IC50 came to 212 nM.

`Cc1ccccc1-c1nc2cc(S(=O)(=O)N[C@H]3CC[C@H](C(=O)N[C@H](C)c4ccc(F)cc4)CC3)cnc2s1` [Example 75, (1r,4R)-N-((R)-1-(4-fluorophenyl)ethyl)-4-(2-o-tolylthiazolo[5,4-b]pyridine-6-sulfonamido)cyclohexanecarboxamide]: the IC50 turned out to be 95 nM. In the case of `COC(=O)CCc1ccc(-c2c(Cl)c3ccc(S(=O)(=O)N[C@H]4CC[C@H](C(=O)N5CCCCC5)CC4)cc3n2C)cc1` [Example 360, methyl 3-(4-(3-chloro-1-methyl-6-(N-((1r,4r)-4-(piperidine-1-carbonyl)cyclohexyl)sulfamoyl)-1H-indol-2-yl)phenyl)propanoate] it was 35 nM; in that of `[2H]C([2H])([2H])N1C(=O)COc2ccc(S(=O)(=O)N[C@H]3CC[C@H](C(=O)N[C@H](C)c4ccc(F)cc4)CC3)cc21` [Example 155, (1r,4R)-N-((R)-1-(4-fluorophenyl)ethyl)-4-(3-oxo-4-(trideuteriomethyl)-3,4-dihydro-2H-benzo[b][1,4]oxazine-6-sulfonamido)cyclohexanecarboxamide], 175 nM; in that of `C[C@@H](NC(=O)[C@H]1CC[C@H](NS(=O)(=O)c2ccc3nc(-c4ccncc4)ccc3c2)CC1)c1ccc(F)cc1` [Example 39, (1r,4R)-N-((R)-1-(4-fluorophenyl)ethyl)-4-(2-(pyridin-4-yl)quinoline-6-sulfonamido)cyclohexanecarboxamide], 25 nM. For `C[C@@H](NC(=O)[C@H]1CC[C@H](NS(=O)(=O)c2ccc3nc(OCC(C)(C)O)ccc3c2)CC1)c1ccc(F)cc1` [Example 81, (1r,4R)-N-((R)-1-(4-fluorophenyl)ethyl)-4-(2-(2-hydroxy-2-methylpropoxy)quinoline-6-sulfonamido)cyclohexanecarboxamide], the IC50 was 95 nM. As for `CC(C)c1nnc(-c2ccc(NS(=O)(=O)c3ccc4[nH]c(Nc5ccc(N6CCOCC6)cc5)nc4c3)cc2)o1` [Example 603, N-(4-(5-isopropyl-1,3,4-oxadiazol-2-yl)phenyl)-2-(4-morpholinophenylamino)-1H-benzo[d]imidazole-5-sulfonamide], the IC50 came out at 323 nM.

Consider `O=C(NCc1cccnc1)[C@H]1CC[C@H](NS(=O)(=O)c2ccc3[nH]c(-c4ccccc4)nc3c2)CC1` [Example 640, (1r,4r)-4-(2-phenyl-1H-benzo[d]imidazole-5-sulfonamido)-N-(pyridin-3-ylmethyl)cyclohexanecarboxamide], for which the IC50 stood at 960 nM. For the compound `C[C@@H](NC(=O)[C@H]1CC[C@H](NS(=O)(=O)c2cnc3c(c2)N(CC(F)(F)F)CCN3C)CC1)c1ccc(F)cc1` [Example 135, (1r,4R)-N-((R)-1-(4-fluorophenyl)ethyl)-4-(4-methyl-1-(2,2,2-triffuoroethyl)-1,2,3,4-tetrahydropyrido[3,2-b]pyrazine-7-sulfonamido)cyclohexanecarboxamide], the IC50 was found to be 157 nM.

In the case of `Cc1cc(CO)ccc1-c1cc2ccc(S(=O)(=O)N[C@H]3CC[C@H](C(=O)N4CCNC[C@@H]4c4ccccc4)CC3)cc2[nH]1` [Example 313, 2-(4-(hydroxymethyl)-2-methylphenyl)-N-((1S,4r)-4-((S)-2-phenylpiperazine-1-carbonyl)cyclohexyl)-1H-indole-6-sulfonamide], the IC50 is less than 10 nM. In the case of `CC(C)OC(=O)c1ccc(NS(=O)(=O)c2ccc3[nH]c(-c4ccc(CN5CCOCC5)cc4)nc3c2)cc1` [Example 562, isopropyl 4-(2-(4-(morpholinomethyl)phenyl)-1H-benzo[d]imidazole-5-sulfonamido)benzoate], the IC50 was determined as 676 nM.

As for `Cn1c(C2CC2)cc2ccc(S(=O)(=O)N[C@H]3CC[C@H](C(=O)N[C@@H](CO)C4CC4)CC3)cc21` [Example 446, (1r,4R)-4-(2-cyclopropyl-1-methyl-1H-indole-6-sulfonamido)-N-((R)-1-cyclopropyl-2-hydroxyethyl)cyclohexanecarboxamide], the IC50 is 365 nM. In the case of `COc1ccc(Nc2nc3cc(S(=O)(=O)Nc4ccc(-c5nnc(C(C)(C)C)o5)cc4)ccc3[nH]2)cc1` [Example 604, N-(4-(5-tert-butyl-1,3,4-oxadiazol-2-yl)phenyl)-2-(4-methoxyphenylamino)-1H-benzo[d]imidazole-5-sulfonamide] it was 676 nM; in that of `CC(C)OC(=O)c1ccc(NS(=O)(=O)c2ccc3nc(-c4ccccc4F)[nH]c3c2)cc1` [Example 502, isopropyl 4-(2-(2-fluorophenyl)-1H-benzo[d]imidazole-6-sulfonamido)benzoate], 1280 nM. In the case of `C[C@@H](NC(=O)[C@H]1CC[C@H](NS(=O)(=O)c2cnc3c(c2)N(C)CCN3)CC1)c1ccc(F)cc1` [Example 130, (1r,4R)-N-((R)-1-(4-fluorophenyl)ethyl)-4-(1-methyl-1,2,3,4-tetrahydropyrido[3,2-b]pyrazine-7-sulfonamido)cyclohexanecarboxamide] it was 59 nM; in that of `O=C([C@H]1CC[C@H](NS(=O)(=O)c2ccc3[nH]c(-c4ccccc4)nc3c2)CC1)N1CCc2ccccc2C1` [Example 616, 2-phenyl-N-((1r,4r)-4-(1,2,3,4-tetrahydroisoquinoline-2-carbonyl)cyclohexyl)-1H-benzo[d]imidazole-5-sulfonamide], 370 nM. As for `Cn1c(-c2ccccc2)cc2cc(S(=O)(=O)N[C@H]3CC[C@H](C(=O)N4CC(C(=O)O)CCC4c4ccccc4)CC3)ccc21` (stereo partly shown) [Example 92, 1-((1r,4r)-4-(1-methyl-2-phenyl-1H-indole-5-sulfonamido)cyclohexanecarbonyl)-6-phenylpiperidine-3-carboxylic acid], the IC50 is less than 10 nM. As to `COC[C@H]1CCCN1C(=O)[C@H]1CC[C@H](NS(=O)(=O)c2ccc3cc(-c4ccccc4)n(C)c3c2)CC1` [Example 408, N-((1R,4r)-4-((R)-2-(methoxymethyl)pyrrolidine-1-carbonyl)cyclohexyl)-1-methyl-2-phenyl-1H-indole-6-sulfonamide], the half-inhibitory concentration (IC50) came to 20 nM. Regarding `C[C@@H](NC(=O)[C@]1(C)CC[C@@H](NS(=O)(=O)c2cnc3c(c2)NCCN3)CC1)c1ccc(F)cc1` [Example 197, (1r,4R)-N-((R)-1-(4-fluorophenyl)ethyl)-1-methyl-4-(1,2,3,4-tetrahydropyrido[3,2-b]pyrazine-7-sulfonamido)cyclohexanecarboxamide], the IC50 came out at 40 nM.

As to `CC(=O)c1cccc(Nc2nc3cc(S(=O)(=O)Nc4ccc(C(=O)OC(C)C)cc4)ccc3[nH]2)c1` [Example 541, isopropyl 4-(2-(3-acetylphenylamino)-1H-benzo[d]imidazole-5-sulfonamido)benzoate], the IC50 is 86 nM.

The values are drawn from patent publication US8697739B2, “Bicyclic acetyl-CoA carboxylase inhibitors and uses thereof” (Novartis AG, priority 2010, dated 2014).
